Assay results reported in ChEMBL document CHEMBL1201862, “PubChem BioAssay data set” (2004).
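Exposure lasted 48 hours, with cells grown in 96-well plates and compounds tested at five concentrations. GI50 is the concentration that inhibits growth by half.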 Calls of active or inactive are those of the source. No stated cut-off is given here; in the data, active = GI50 up to about 1.1 µM and inactive = higher.

How the values were obtained:
Assay in all cases: inhibition of tumour cell growth, NCI panel, 48 h
[1] = tested on: A498
[2] = tested on: CAKI-1
[3] = tested on: CCRF-CEM
[4] = tested on: HCT-116
[5] = tested on: HCT-15
[6] = tested on: HOP-92
[7] = tested on: K562
[8] = tested on: KM12
[9] = tested on: M14
[10] = tested on: MOLT-4
[11] = tested on: Malme-3M
[12] = tested on: NCI-H23
[13] = tested on: NCI-H460
[14] = tested on: NCI-H522
[15] = tested on: OVCAR-4
[16] = tested on: OVCAR-8
[17] = tested on: SF-268
[18] = tested on: SK-MEL-5
[19] = tested on: NCI-H226

Compound	GI50 [1]	GI50 [2]	GI50 [3]	GI50 [4]	GI50 [5] [µM]	GI50 [6]	GI50 [7]	GI50 [8]	GI50 [9]	GI50 [10]	GI50 [11]	GI50 [12]	GI50 [13]	GI50 [14]	GI50 [15]	GI50 [16]	GI50 [17]	GI50 [18]	GI50 [19]
O=C1NC2(CCCC2)/C(=N\O)C12CCCC2	> 100 µM (inactive)	> 100 µM (inactive)	> 100 µM (inactive)	> 100 µM (inactive)	> 100	> 100 µM (inactive)	> 100 µM (inactive)	> 100 µM (inactive)	> 100 µM (inactive)	> 100 µM (inactive)	> 100 µM (inactive)	> 100 µM (inactive)	> 100 µM (inactive)	> 100 µM (inactive)	> 100 µM (inactive)	> 100 µM (inactive)	> 100 µM (inactive)	> 100 µM (inactive)	–
CCN(CC)C(=O)Cn1c2c(c3ccccc31)CCCC2	> 100 µM (inactive)	57 µM (inactive)	89.3 µM (inactive)	40.9 µM (inactive)	74.6	> 100 µM (inactive)	68.4 µM (inactive)	–	> 100 µM (inactive)	–	> 100 µM (inactive)	45.4 µM (inactive)	> 100 µM (inactive)	–	> 10 µM (inactive)	> 100 µM (inactive)	> 100 µM (inactive)	64 µM (inactive)	–
CC(=O)O[C@H]1CC2C=CC3C(CCC31)O2 (stereo partly drawn)	–	> 100 µM (inactive)	> 100 µM (inactive)	–	> 100	–	> 100 µM (inactive)	–	> 100 µM (inactive)	> 100 µM (inactive)	> 100 µM (inactive)	> 100 µM (inactive)	> 100 µM (inactive)	–	> 100 µM (inactive)	> 100 µM (inactive)	> 100 µM (inactive)	–	–
CCCCCCCCc1cc2c(O)c(c1)Cc1cc(CCCCCCCC)cc(c1O)Cc1cc(CCCCCCCC)cc(c1O)Cc1cc(CCCCCCCC)cc(c1O)Cc1cc(CCCCCCCC)cc(c1O)Cc1cc(CCCCCCCC)cc(c1O)C2	> 100 µM (inactive)	> 100 µM (inactive)	> 100 µM (inactive)	> 100 µM (inactive)	> 100	> 100 µM (inactive)	> 100 µM (inactive)	> 100 µM (inactive)	> 10 µM (inactive)	> 100 µM (inactive)	> 100 µM (inactive)	> 100 µM (inactive)	> 100 µM (inactive)	–	–	> 100 µM (inactive)	> 100 µM (inactive)	–	–
O=C(c1ccccc1)[C@H]1Nc2ccc(Cl)cc2[C@H]2c3ccccc3O[C@H]21	12.1 µM (inactive)	14 µM (inactive)	–	17.2 µM (inactive)	14.4	–	14.5 µM (inactive)	16.1 µM (inactive)	16.3 µM (inactive)	4.82 µM (inactive)	15.8 µM (inactive)	14.2 µM (inactive)	16.5 µM (inactive)	17.8 µM (inactive)	18.2 µM (inactive)	16.4 µM (inactive)	18.1 µM (inactive)	13.2 µM (inactive)	> 10 µM (inactive)
CCCCC1(C(NC(=O)c2ccccc2Cl)c2ccncc2)C(=O)N(c2ccccc2)N(c2ccccc2)C1=O (stereo not drawn)	–	–	27.9 µM (inactive)	23.9 µM (inactive)	38.5	39.6 µM (inactive)	33.5 µM (inactive)	81.3 µM (inactive)	55.7 µM (inactive)	11.9 µM (inactive)	61 µM (inactive)	44.7 µM (inactive)	32.8 µM (inactive)	31.6 µM (inactive)	–	75 µM (inactive)	> 100 µM (inactive)	18.1 µM (inactive)	66.8 µM (inactive)
CCC1CCC2CCCC(C)N12 (stereo not drawn)	–	> 100 µM (inactive)	> 100 µM (inactive)	> 100 µM (inactive)	> 100	> 100 µM (inactive)	> 100 µM (inactive)	> 100 µM (inactive)	> 100 µM (inactive)	> 100 µM (inactive)	> 100 µM (inactive)	> 100 µM (inactive)	–	> 100 µM (inactive)	> 100 µM (inactive)	> 100 µM (inactive)	> 100 µM (inactive)	–	> 100 µM (inactive)
CC(C)C1C(=O)NC(CO)Cc2c[nH]c3c(C(c4c[nH]c5ccccc45)C(O)CO)ccc(c23)N1C (stereo not drawn)	14.5 µM (inactive)	–	30.1 µM (inactive)	> 100 µM (inactive)	–	0.612 µM (active)	4.19 µM (inactive)	> 100 µM (inactive)	> 100 µM (inactive)	49 µM (inactive)	–	> 100 µM (inactive)	5.02 µM (inactive)	> 100 µM (inactive)	> 100 µM (inactive)	> 100 µM (inactive)	> 100 µM (inactive)	16.4 µM (inactive)	–
COC(=O)N/N=C(/CCN1CCCC1)CC(c1ccccc1)c1c(O)c2ccccc2oc1=O (stereo not drawn)	> 100 µM (inactive)	> 100 µM (inactive)	> 100 µM (inactive)	> 100 µM (inactive)	> 100	–	> 100 µM (inactive)	> 100 µM (inactive)	> 100 µM (inactive)	> 100 µM (inactive)	> 100 µM (inactive)	> 100 µM (inactive)	> 100 µM (inactive)	> 100 µM (inactive)	> 100 µM (inactive)	> 100 µM (inactive)	> 100 µM (inactive)	> 100 µM (inactive)	> 100 µM (inactive)
O=C1CCC2(c3ccc(F)cc3)Nc3cc(Cl)ccc3N12 (stereo not drawn)	> 100 µM (inactive)	–	> 100 µM (inactive)	67.8 µM (inactive)	> 100	–	44.6 µM (inactive)	> 100 µM (inactive)	> 100 µM (inactive)	37.2 µM (inactive)	59.7 µM (inactive)	38.3 µM (inactive)	–	48.6 µM (inactive)	48.6 µM (inactive)	> 100 µM (inactive)	> 100 µM (inactive)	45.5 µM (inactive)	38.5 µM (inactive)
COC1=CC(=O)C2C(C1=O)C(c1ccccc1)[C@H]2C (stereo partly drawn)	> 100 µM (inactive)	–	28.4 µM (inactive)	–	18.9	25.7 µM (inactive)	34.4 µM (inactive)	> 100 µM (inactive)	> 100 µM (inactive)	> 10 µM (inactive)	26.1 µM (inactive)	> 100 µM (inactive)	> 100 µM (inactive)	–	–	45.6 µM (inactive)	> 100 µM (inactive)	80 µM (inactive)	–
CCOc1ccc(N(CC(=O)N2CC(=O)Nc3cc(C)c(C)cc32)C(C)=O)cc1	–	> 100 µM (inactive)	> 100 µM (inactive)	> 100 µM (inactive)	> 100	83.2 µM (inactive)	> 100 µM (inactive)	> 100 µM (inactive)	> 100 µM (inactive)	> 100 µM (inactive)	> 100 µM (inactive)	> 100 µM (inactive)	> 100 µM (inactive)	> 100 µM (inactive)	> 100 µM (inactive)	> 100 µM (inactive)	87.5 µM (inactive)	> 100 µM (inactive)	> 100 µM (inactive)
Brc1ccc(C2SCc3nc4ccccc4n32)cc1 (stereo not drawn)	–	14.4 µM (inactive)	15.7 µM (inactive)	6.3 µM (inactive)	11.3	1.06 µM (active)	3.65 µM (inactive)	5.98 µM (inactive)	12.4 µM (inactive)	13.4 µM (inactive)	12.9 µM (inactive)	2.75 µM (inactive)	12.9 µM (inactive)	2.3 µM (inactive)	7.53 µM (inactive)	12.8 µM (inactive)	13.6 µM (inactive)	3.72 µM (inactive)	17.4 µM (inactive)
